Measurements reported in PubChem BioAssay (NCI).
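Each compound was tested at five concentrations against cells in 96-well plates for 48 hours. GI50 is the concentration that inhibits growth by half. TGI is the concentration that stops growth completely.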

What was measured:
Assay in all cases: NCI tumour cell line growth inhibition, 48 h
786-0 renal = tested on: 786-0 renal
OVCAR-4 ovarian = tested on: OVCAR-4 ovarian
SF-268 CNS = tested on: SF-268 CNS
SF-539 CNS = tested on: SF-539 CNS
SK-OV-3 ovarian = tested on: SK-OV-3 ovarian
SN12C renal = tested on: SN12C renal
SW-620 colon = tested on: SW-620 colon
UACC-257 melanoma = tested on: UACC-257 melanoma
UO-31 renal = tested on: UO-31 renal
ACHN renal = tested on: ACHN renal

Row | Structure (SMILES) | TGI (786-0 renal) | TGI (OVCAR-4 ovarian) | TGI (SF-268 CNS) | TGI (SF-539 CNS) | TGI (SK-OV-3 ovarian) | TGI (SN12C renal) | TGI (SW-620 colon) | TGI (UACC-257 melanoma) | TGI (UO-31 renal) | TGI (ACHN renal) | GI50 (786-0 renal) | GI50 (ACHN renal) | GI50 (OVCAR-4 ovarian) | GI50 (SF-268 CNS) | GI50 (SF-539 CNS) | GI50 (SK-OV-3 ovarian) | GI50 (SN12C renal) | GI50 (SW-620 colon) | GI50 (UACC-257 melanoma) | GI50 (UO-31 renal)
1 | O=C1NC(=S)NNC12c1ccccc1-c1ccccc12 | > 10 µM | > 10 µM | > 10 µM | > 10 µM | > 10 µM | > 10 µM | > 10 µM | > 10 µM | > 10 µM | – | – | – | – | – | – | – | – | – | – | –
2 | C[C@H]1NC(=O)C2CCCCN2C(=O)CN(C)C(=O)CNC(=O)C2CCCCN2C(=O)[C@@H](NC(=O)c2nc3ccccc3cc2O)[C@@H](C)NC(=O)C2CCCCN2C(=O)CN(C)C(=O)CNC(=O)[C@@H]2CCCCN2C(=O)C1NC(=O)c1nc2ccccc2cc1O (some centres undefined) | 31.8 µM | 5.48 µM | 0.934 µM | 0.698 µM | > 100 µM | > 100 µM | 12.3 µM | 0.537 µM | 0.984 µM | – | – | – | – | – | – | – | – | – | – | –
3 | Cc1[nH]c2ccccc2c1-c1cc(-c2cc(-c3c(C)[nH]c4ccccc34)on2)no1 | > 100 µM | > 100 µM | > 100 µM | > 100 µM | > 100 µM | > 100 µM | > 100 µM | > 100 µM | > 100 µM | > 100 µM | – | – | – | – | – | – | – | – | – | –
4 | O=C(O)[C@H](NS(=O)(=O)c1ccc2ccccc2c1)c1ccccc1 | > 100 µM | > 100 µM | > 100 µM | > 100 µM | > 100 µM | > 100 µM | – | > 100 µM | > 100 µM | > 100 µM | – | – | – | – | – | – | – | – | – | –
5 | O=c1cc2oc3cc(O)c(O)cc3c(-c3ccccc3O)c-2cc1O | 37.2 µM | > 100 µM | > 100 µM | > 100 µM | > 100 µM | > 100 µM | > 100 µM | > 100 µM | > 100 µM | > 100 µM | 6.32 µM | 4.13 µM | 11.5 µM | 5.53 µM | 6.16 µM | 7.65 µM | 10.7 µM | 32.7 µM | 20.4 µM | 3.3 µM
6 | COc1cccc2c1C(=O)c1c(O)c3c(c(O)c1C2=O)CC(O)(/C(C)=N/NC(=O)CCC(=O)N/N=C(\C)C1(O)Cc2c(O)c4c(c(O)c2C(OC2CC(N)C(O)C(C)O2)C1)C(=O)c1c(OC)cccc1C4=O)CC3OC1CC(N)C(O)C(C)O1 (centres undefined) | 1.06 µM | > 21.4 µM | 8.11 µM | 0.859 µM | 2.4 µM | > 50 µM | 5.36 µM | 3.28 µM | 1.09 µM | 2.9 µM | 0.182 µM | 0.277 µM | 0.885 µM | 0.259 µM | 0.179 µM | 0.475 µM | 0.234 µM | 0.193 µM | 0.781 µM | 0.158 µM
7 | NS(=O)(=O)c1ccc(N(/C=C/C(=O)C(F)(F)F)CC(=O)c2ccc(Cl)cc2)cc1 | > 100 µM | > 100 µM | > 100 µM | > 100 µM | > 100 µM | > 100 µM | > 100 µM | > 100 µM | > 100 µM | 91.4 µM | 45.2 µM | 30.4 µM | 60 µM | 34.5 µM | 43.4 µM | 69 µM | 29.3 µM | 57 µM | 50.9 µM | 45.3 µM
8 | O=C1[C@@H]2C3c4ccccc4C([C@@H]2C(=O)N1c1ccccc1)S3(=O)=O | > 100 µM | – | > 100 µM | > 100 µM | > 100 µM | > 100 µM | > 100 µM | > 100 µM | > 100 µM | > 100 µM | – | – | – | – | – | – | – | – | – | –
9 | Nc1nc(N)c(N=Nc2ccc([As](=O)(O)O)cc2)c(=O)[nH]1 | > 100 µM | > 100 µM | > 100 µM | – | > 100 µM | > 100 µM | > 100 µM | > 100 µM | > 100 µM | > 100 µM | – | – | – | – | – | – | – | – | – | –
10 | O=c1cc(-c2ccccc2)[nH]c2c(S)cccc12 | > 100 µM | > 100 µM | > 100 µM | > 100 µM | > 100 µM | > 100 µM | > 100 µM | > 100 µM | – | > 100 µM | – | – | – | – | – | – | – | – | – | –
11 | O=C1c2ccccc2C2(O)c3cc4ccccc4cc3OC12O (centres undefined) | > 100 µM | > 100 µM | > 100 µM | > 100 µM | > 100 µM | > 100 µM | > 100 µM | 89.3 µM | – | > 100 µM | – | – | – | – | – | – | – | – | – | –
12 | O=C(O)CSc1n[nH]c(-c2ccccc2)n1 | > 100 µM | > 100 µM | > 100 µM | > 100 µM | > 100 µM | > 100 µM | > 100 µM | – | > 100 µM | > 100 µM | – | – | – | – | – | – | – | – | – | –
13 | COC1[C@@H](OC(C)=O)[C@@H](NC(=O)C(Cl)(Cl)Cl)C(I)[C@@H](N2C(=O)c3ccccc3C2=O)[C@H]1OC (some centres undefined) | > 100 µM | > 100 µM | > 100 µM | > 100 µM | – | > 100 µM | > 100 µM | > 100 µM | – | > 100 µM | – | – | – | – | – | – | – | – | – | –
14 | Cc1csc(Nc2nc(-c3cccc(Br)c3)nc(C(Cl)(Cl)Cl)n2)n1 | > 100 µM | > 100 µM | > 100 µM | > 100 µM | > 100 µM | – | > 100 µM | > 100 µM | > 100 µM | 2.97 µM | 7.75 µM | 0.475 µM | > 100 µM | 4.65 µM | 3.09 µM | > 100 µM | – | 3.29 µM | 3.34 µM | 2.51 µM
15 | CCc1c(OC(C)=O)c2c(NC3OC(COC(C)=O)C(OC(C)=O)C(OC(C)=O)C3OC(C)=O)nc(OC)nc2oc1=O (centres undefined) | > 100 µM | > 100 µM | – | > 100 µM | > 100 µM | > 100 µM | > 100 µM | > 100 µM | > 100 µM | > 100 µM | – | – | – | – | – | – | – | – | – | –
16 | O=C(N/N=C1/C(=O)N(c2ccc(Cl)cc2Cl)C(=O)C(=O)C1c1nc2ccccc2o1)c1ccccc1O (centres undefined) | > 100 µM | – | > 100 µM | 97.1 µM | > 100 µM | > 100 µM | > 100 µM | – | – | > 100 µM | – | – | – | – | – | – | – | – | – | –
17 | COc1ccc(/C(=N\NC(=O)C(N)=O)C(c2ccc(OC)cc2)C2(O)C(=O)Nc3c(Cl)cccc32)cc1 (centres undefined) | > 100 µM | > 100 µM | > 100 µM | – | – | > 100 µM | > 100 µM | > 100 µM | > 100 µM | > 100 µM | – | – | – | – | – | – | – | – | – | –
18 | CCOC(=O)C(C)(C)Oc1ccc2c(C)c(-c3ccc(Cl)cc3)c(=O)oc2c1 | > 100 µM | > 100 µM | > 100 µM | > 100 µM | – | > 100 µM | > 100 µM | > 100 µM | > 100 µM | > 100 µM | – | – | – | – | – | – | – | – | – | –
19 | O=C(NC(=O)c1cn(CCNCCO)c(=O)[nH]c1=O)OCc1ccccc1 | > 100 µM | > 100 µM | > 100 µM | > 100 µM | > 100 µM | > 100 µM | > 100 µM | – | – | > 100 µM | – | – | – | – | – | – | – | – | – | –
